Measured values published in patent US10421779B2, “Carbazole compound having anti-virus activity” (priority 2016, dated 2019).
Like-named read-outs stand apart in the source and are kept apart here.

Tested on: HCV genotype 1 b (HCV replicon system)
Assay: HCV replicon system genotype 1b, Renilla luciferase activity
Type: cell-based
Details: Hepatitis C virus, 72 h, HCV genotype 1b replicon, Rluc, 3 days, read-out: Replicon EC50 1b type
Procedure: From human liver cells (Huh7.5.1 cell) infected by hepatitis C virus, the anti-virus effects by the compound of the present invention were measured. From HCV genotype 1 b (HCV replicon system), genotype 2a (HCV cell culture system, HCVcc), and genotype 3a, the EC50 values were measured.
In order to measure the EC50 value from HCV genotype 1 b, the degrees of HCV replication inhibitory activities of an experimental compound were measured. The EC50 value was measured by treating the experimental compound with the HCV replicon systems (genotype 1 b) having Renilla luciferase (Rluc) genes and genotype 1 b non-structure genes under various concentration conditions to compare the activity degree of the luciferase after 3 days elapsed time with that of the control.

With `CCCCn1c2cc(NC(=O)[C@@H]3CCCN3C(=O)[C@H](NC(=O)OC)c3ccccc3)ccc2c2ccc(NC(=O)[C@@H]3CCCN3C(=O)[C@H](NC(=O)OC)c3ccccc3)cc21` [Example 1, dimethyl ((1R,1′R)-((2S,2′S)-(((9-butyl-9H-carbazole-2,7-diyl)bis(azanediyl))bis(carbonyl))bis(pyrrolidine-2,1-diyl))bis(2-oxo-1-phenylethane-2,1-diyl))dicarbamate] the EC50 was 10.4 pM.
With `CCCCn1c2cc(NC(=O)[C@@H]3CCCN3C(=O)[C@H](NC(=O)OC)C(C)C)ccc2c2ccc(NC(=O)[C@@H]3CCCN3C(=O)[C@H](NC(=O)OC)C(C)C)cc21` [Example 2, dimethyl ((2R,2′R)-((2S,2′S)-(((9-butyl-9H-carbazole-2,7-diyl)bis(azanediyl))bis(carbonyl))bis(pyrrolidine-2,1-diyl))bis(3-methyl-1-oxobutane-1,2-diyl))dicarbamate] the EC50 was > 1000 pM.
For `CCCCn1c2cc(NC(=O)C3CCCN3C(=O)[C@@H](NC(=O)OC)c3ccccc3)ccc2c2ccc(NC(=O)[C@@H]3CCCN3C(=O)[C@@H](NC(=O)OC)c3ccccc3)cc21` (stereo partly drawn) [Example 3, dimethyl ((1S,1′S)-((2S,2′S)-(((9-butyl-9H-carbazole-2,7-diyl)bis(azanediyl))bis(carbonyl))bis(pyrrolidine-2,1-diyl))bis(2-oxo-1-phenylethane-2,1-diyl))carbamate], the EC50 was > 1000 pM.
`CCCCn1c2cc(NC(=O)[C@@H]3CCCN3C(=O)[C@@H](NC(=O)OC)C(C)C)ccc2c2ccc(NC(=O)[C@@H]3CCCN3C(=O)[C@@H](NC(=O)OC)C(C)C)cc21` [Example 4, dimethyl ((2S,2′S)-((2S,2′S)-(((9-butyl-9H-carbazole-2,7-diyl)bis(azanediyl))bis(carbonyl))bis(pyrrolidine-2,1-diyl))bis(3-methyl-1-oxobutane-1,2-diyl))dicarbamate] gave an EC50 of 10000 to 100000 pM.
In the case of `CCCCn1c2cc(NC(=O)C3CCCN3C(=O)[C@H](C(C)C)N3CCOC3=O)ccc2c2ccc(NC(=O)[C@@H]3CCCN3C(=O)[C@H](C(C)C)N3CCOC3=O)cc21` (stereo partly drawn) [Example 5, (2S,2′S)—N,N′-(9-butyl-9H-carbazole-2,7-diyl)bis(1-((S)-3-methyl-3-2-(2-oxooxazolidine-3-yl)butanoyl)pyrrolidine-2-carboxamide)], the EC50 is reported as > 100000 pM.
Work on `COC(=O)N[C@@H](C(=O)N1CCC[C@H]1C(=O)Nc1ccc2c3ccc(NC(=O)[C@@H]4CCCN4C(=O)[C@H](NC(=O)OC)c4ccccc4)cc3n(C)c2c1)c1ccccc1` [Example 6, dimethyl ((1R,1′R)-((2S,2′S)-(((9-methyl-9H-carbazole-2,7-diyl)bis(azanediyl))bis(carbonyl))bis(pyrrolidine-2,1-diyl))bis(2-oxo-1-phenylethane-2,1-diyl))dicarbamate] yielded an EC50 of 19.5 pM.
With `COC(=O)N[C@@H](C(=O)N1CCC[C@H]1C(=O)Nc1ccc2c3ccc(NC(=O)[C@@H]4CCCN4C(=O)[C@H](NC(=O)OC)C(C)C)cc3n(C)c2c1)C(C)C` [Example 7, dimethyl ((2R,2′R)-((2S,2′S)-(((9-methyl-9H-carbazole-2,7-diyl)bis(azanediyl))bis(carbonyl))bis(pyrrolidine-2,1-diyl))bis(3-methyl-1-oxobutane-1,2-diyl))dicarbamate] the EC50 was > 1000 pM.
With `COC(=O)N[C@H](C(=O)N1CCC[C@H]1C(=O)Nc1ccc2c3ccc(NC(=O)[C@@H]4CCCN4C(=O)[C@@H](NC(=O)OC)c4ccccc4)cc3n(C)c2c1)c1ccccc1` [Example 8, dimethyl ((1S,1′S)-((2S,2′S)-(((9-methyl-9H-carbazole-2,7-diyl)bis(azanediyl))bis(carbonyl))bis(pyrrolidine-2,1-diyl))bis(2-oxo-1-phenylethane-2,1-diyl))dicarbamate] the EC50 was > 1000 pM.
`COC(=O)N[C@H](C(=O)N1CCC[C@H]1C(=O)Nc1ccc2c3ccc(NC(=O)[C@@H]4CCCN4C(=O)[C@@H](NC(=O)OC)C(C)C)cc3n(C)c2c1)C(C)C` [Example 9, dimethyl ((2S,2′S)-((2S,2′S)-(((9-methyl-9H-carbazole-2,7-diyl)bis(azanediyl))bis(carbonyl))bis(pyrrolidine-2,1-diyl))bis(3-methyl-1-oxobutane-1,2-diyl))dicarbamate] was tested, and the EC50 was > 100000 pM.
`CC(C)[C@@H](C(=O)N1CCC[C@H]1C(=O)Nc1ccc2c3ccc(NC(=O)[C@@H]4CCCN4C(=O)[C@H](C(C)C)N4CCOC4=O)cc3n(C)c2c1)N1CCOC1=O` [Example 10, (2S,2′S)—N,N′-(9-methyl-9H-carbazole-2,7-diyl)bis(1-((S)-3-methyl-2-(2-oxazolidine-3-yl)butanoyl)pyrrolidine-2-carboxamide)] was tested, and the EC50 was > 100000 pM.
With `COC(=O)N[C@@H](C(=O)N1CCC[C@H]1C(=O)Nc1ccc2c3ccc(NC(=O)[C@@H]4CCCN4C(=O)[C@H](NC(=O)OC)c4ccccc4)cc3n(CCN3CCN(C)CC3)c2c1)c1ccccc1` [Example 11] the EC50 was 10000 to 100000 pM.
`COC(=O)N[C@@H](C(=O)N1CCC[C@H]1C(=O)Nc1ccc2c3ccc(NC(=O)[C@@H]4CCCN4C(=O)[C@H](NC(=O)OC)c4ccccc4)cc3n(CCN3CCOCC3)c2c1)c1ccccc1` [Example 12, dimethyl ((1R,1′R)-((2S,2′S)-(((9-(2-morpholinoethyl)-9H-carbazole-2,7-diyl)bis(azanediyl))bis(carbonyl))bis(pyrrolidine-2,1-diyl))bis(2-oxo-1-phenylethane-2,1-diyl))carbamate] gave an EC50 of 1000 to 10000 pM.
Molecule `COC(=O)N[C@@H](C(=O)N1CCC[C@H]1C(=O)Nc1ccc2c3ccc(NC(=O)[C@@H]4CCCN4C(=O)[C@H](NC(=O)OC)c4ccccc4)cc3n(Cc3ccccn3)c2c1)c1ccccc1` [Example 17, dimethyl ((1R,1′R)-((2S,2′S)-(((9-(pyridine-2-ylmethyl)-9H-carbazole-2,7-diyl)bis(azanediyl))bis(carbonyl))bis(pyrrolidine-2,1-diyl))bis(2-oxo-1-phenylethane-2,1-diyl))dicarbamate] has an EC50 of 50 to 250 pM.
With `COC(=O)N[C@@H](C(=O)N1CCC[C@H]1C(=O)Nc1ccc2c3ccc(NC(=O)[C@@H]4CCCN4C(=O)[C@H](NC(=O)OC)c4ccccc4)cc3n(Cc3cccnc3)c2c1)c1ccccc1` [Example 18, dimethyl ((1R,1′R)-((2S,2′S)-(((9-(pyridine-3-ylmethyl)-9H-carbazole-2,7-diyl)bis(azanediyl))bis(carbonyl))bis(pyrrolidine-2,1-diyl))bis(2-oxo-1-phenylethane-2,1-diyl))dicarbamate] the EC50 was 50 to 250 pM.
For `COCCOCCn1c2cc(NC(=O)[C@@H]3CCCN3C(=O)[C@H](NC(=O)OC)c3ccccc3)ccc2c2ccc(NC(=O)[C@@H]3CCCN3C(=O)[C@H](NC(=O)OC)c3ccccc3)cc21` [Example 22, dimethyl ((1R,1′R)-((2S,2′S)-(((9-(2-(2-methoxyethoxy)ethyl)-9H-carbazole-2,7-diyl)bis(azanediyl))bis(carbonyl))bis(pyrrolidine-2,1-diyl))bis(2-oxo-1-phenylethane-2,1-diyl))dicarbamate], the EC50 (range limits given with own units (pM to nM)) was 250 to 1250 pM.
For `COCCOCCOCCn1c2cc(NC(=O)[C@@H]3CCCN3C(=O)[C@H](NC(=O)OC)c3ccccc3)ccc2c2ccc(NC(=O)[C@@H]3CCCN3C(=O)[C@H](NC(=O)OC)c3ccccc3)cc21` [Example 23, dimethyl ((1R,1′R)-((2S,2′S)-(((9-(2-(2-(2-methoxyethoxy)ethoxy)ethyl)-9H-carbazole-2,7-diyl)bis(azanediyl))bis(carbonyl))bis(pyrrolidine-2,1-diyl))bis(2-oxo-1-phenylethane-2,1-diyl))dicarbamate], the EC50 was > 1000 pM.
